The target in series [1] is CYP2D6 (Homo sapiens (Human), UniProt P10635). Briefly: biochemical. Type of series: biochemical. On the procedure:
(§1) The CYP450 inhibition assays utilized microsomes from insect cells expressing human recombinant individual cDNA-expressed CYP isoforms 3A4 and 2D6, as well as the fluorogenic probe that produces fluorescent metabolite. Standard inhibitors were co-incubated with fluorogenic substrates and their inhibitory potential (IC50) was determined. Assay conditions in terms of CYP450 protein concentration and time of incubation were standardized, enzyme kinetics parameters of each fluorescent probe substrate were estimated and IC50 values of inhibitors were determined and validated on different days to check reproducibility.
(§2) A 100 mM sodium phosphate buffer was prepared and adjusted to pH 7.4. In a separate falcon tube, a 2× enzyme/substrate (E/S) solution was prepared in phosphate buffer. The final concentration of CYP2D6 (CORNING®) and […] (AMMC) was 10 nM and 4 μM, and CYP3A4 (CORNING®) and 7-benzyloxy-4-(trifluoromethyl) coumarin (BFC) was 20 nM and 40 μM, respectively. In a separate falcon tube, a 2×NADPH regenerating system (NRS) was prepared in phosphate buffer. The final concentration for each component in the assay was as follows: • CYP2D6 assay: 0.008 mM NADPH, 3.3 mM glucose 6-phosphate, 0.4 U of glucose-6-phosphate dehydrogenase per mL
(§3) Both enzymatic assays were conducted in a 96-well microtiter plate (Black, CORNING® COSTAR®) with a final volume of 100 μL. Preparation of the plate began with the addition of 74 μL of the E/S in the first well, and 50 μL to all subsequent wells (from 2-11). The test compounds (1 μL) were dissolved in the first well to give the first row a final volume of 75 μL. A 1:3 serial dilution of the test compound was conducted by removing 25 μL from the first well and diluting it with the second and so forth until the tenth row. Final concentrations yielded a range from 200 μM-0.01 μM. Well no. 11 contained no inhibitor, and well no. 12 contained no enzyme. Both were used as controls for background fluorescence. The plate was incubated for 30 min at 37° C. After incubation, the reaction was initiated by the addition of 50 μL of the 2×NRS to each well.
Immediately (within 1 min) the fluorescence was measured using a microplate reader (BIOTEK® Synergy Neo2). CYP2D6 was monitored at Ex/Em=410/460 nm, and CYP3A4 monitored at Ex/Em=410/538 nm in kinetic mode that scanned every 5 min for 60 mins. Data was exported and analyzed using Graph Pad Prism 7. […] The IC50 value was derived after the data was fitted on a 10-point curve using a four-parameter logistic regression model.

Series [2] has as its target CYP3A4 (Homo sapiens (Human), UniProt P08684). Briefly: Fluorometric CYP450 enzyme inhibition assay, CYP3A4. Type of series: biochemical. The procedure: as §1, §2
as §3, with “The test compounds (1 μL) were dissolved in the first well to give the first row a final volume of 75 μL.” left out
Immediately (within 1 min) the fluorescence was measured using a microplate reader (BIOTEK® Synergy Neo2). […] Data was exported and analyzed using Graph Pad Prism 7. […] The IC50 value was derived after the data was fitted on a 10-point curve using a four-parameter logistic regression model.

The nature of series [3]: Metabolic stability assay in human liver microsomes (HLM). Type of series: in vitro ADME. The settings on record: pH 7.4, 3 μM test compound, NADPH, sampled 0-120 min, read-out: HLM t1/2. On the procedure: The LC-MS/MS analysis was performed using Agilent 1260 Infinity II HPLC, coupled with an Agilent G6460 triple quadrupole mass spectrometer (Agilent Technologies, USA). All the data were acquired employing Agilent 6460 Quantitative Analysis data processing software.
Reverse-phase HPLC separation for each compound was achieved either on an Agilent Porshell 120 EC-C8 column (2.1×50 mm, 2.7 μm), or on an Agilent Zorbax XDB C18 column (2.1×50 mm, 3.5 μm) with a mobile phase composed of methanol-water-formic acid or acetonitrile-water-formic acid (0.1%) at a flow rate of 0.5 mL/min (changes for some compounds). Each method was developed in the presence of an internal standard (ISTD) d5-7-ethoxy coumarin. The column temperature was maintained at 40° C. for most of the samples otherwise noted. The detection was operated in the Agilent JetStream electrospray positive ionization using multiple reaction monitoring mode (MRM).
Other MS conditions were as follows: dwell time 100 ms; gas flow 10 L/min; nebulizer pressure 45 psi; delta EMV 200 V; fragmentor voltage and collision energy for individual compounds vary.
Test compounds were dissolved in 100% DMSO or 100% MeOH to make 10 mM stock solutions. Verapamil (Sigma Aldrich) aided as a positive control and was dissolved in 100% DMSO to make 10 mM stock solutions. The 10 mM stock solution of test and control compounds were further diluted in potassium phosphate buffer (100 mM, pH 7.4) to 500 μM to ensure the organic solvent content was <0.2%. Human liver microsomes (HLMs) were purchased from Xenotech at 20 mg/mL. NADPH (Sigma Aldrich) 10 mM stocks were prepared in deionized water.
The HLM assay was prepared in a 1.5 mL Eppendorf tube with a final volume of 1100 μL for duplicate runs. Each reaction contained phosphate buffer (928.4 μL), liver microsomes (55 μL), and test compound resulting in a final concentration of 3 μM (6.6 μL of 500 μM). The reaction was initiated with 110 μL of 10 mM NADPH. Aliquots (100 μL) were removed in duplicate at 0, 15, 30, 60, 120 min (for prodrug compounds) and 0, 5, 10, 15, 30 min (verapamil, positive control compound) time intervals and quenched in cold […] of 100% methanol which contained internal standard (ISTD: d5-7-ethoxy coumarin 4 μM). Before centrifugation each of the aliquoted tubes were vortexed to make sure compounds were in the solution. The aliquots were centrifuged at 12,000 g for 5 min and the supernatant removed and placed in an LC-MS vial. Each time point was assessed using LC-MS and the area, based on the extracted ion, was integrated with respect to the ISTD. Positive controls were conducted at a final volume of 550 μL to give each time point in a single run. A no-NADPH negative control with test or control compound was performed in a single run (150 μL) at the longest time point. Controls were processed and analyzed like the test compounds. Each time point was run in duplicates followed by in-between blank washes to avoid the carryover and to equilibrate the column.
(In general: Microsomes from liver hold many membrane-bound enzymes, among them those of drug oxidation.)

Setting [4] is: human recombinant CYP2D6, AMMC substrate, read-out: CYP450 IC50 2D6.
Where [5] appears, read: human recombinant CYP3A4, BFC substrate, read-out: CYP450 IC50 3A4.

The values that follow come from patent publication US12049474B2, “Nucleoside prodrugs and uses related thereto” (Emory University, priority 2019, dated 2024).

Where two headings read alike, the source gives them in different places.

Chain of CYP2D6 (P10635 whole entry, canonical isoform): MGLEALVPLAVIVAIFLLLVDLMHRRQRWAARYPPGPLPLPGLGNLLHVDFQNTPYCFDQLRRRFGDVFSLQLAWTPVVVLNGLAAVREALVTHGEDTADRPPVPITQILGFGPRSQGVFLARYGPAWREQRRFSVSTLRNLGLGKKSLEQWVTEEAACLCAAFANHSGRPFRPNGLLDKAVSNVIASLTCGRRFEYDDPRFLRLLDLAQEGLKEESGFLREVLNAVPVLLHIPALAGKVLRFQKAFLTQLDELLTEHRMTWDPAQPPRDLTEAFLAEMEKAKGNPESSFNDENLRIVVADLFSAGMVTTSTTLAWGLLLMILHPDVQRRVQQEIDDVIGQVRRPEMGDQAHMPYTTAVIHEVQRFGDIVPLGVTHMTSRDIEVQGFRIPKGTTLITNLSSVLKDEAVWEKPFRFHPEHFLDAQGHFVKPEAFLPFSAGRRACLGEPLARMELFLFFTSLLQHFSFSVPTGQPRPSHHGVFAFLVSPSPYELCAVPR
Chain of CYP3A4 (P08684 whole entry): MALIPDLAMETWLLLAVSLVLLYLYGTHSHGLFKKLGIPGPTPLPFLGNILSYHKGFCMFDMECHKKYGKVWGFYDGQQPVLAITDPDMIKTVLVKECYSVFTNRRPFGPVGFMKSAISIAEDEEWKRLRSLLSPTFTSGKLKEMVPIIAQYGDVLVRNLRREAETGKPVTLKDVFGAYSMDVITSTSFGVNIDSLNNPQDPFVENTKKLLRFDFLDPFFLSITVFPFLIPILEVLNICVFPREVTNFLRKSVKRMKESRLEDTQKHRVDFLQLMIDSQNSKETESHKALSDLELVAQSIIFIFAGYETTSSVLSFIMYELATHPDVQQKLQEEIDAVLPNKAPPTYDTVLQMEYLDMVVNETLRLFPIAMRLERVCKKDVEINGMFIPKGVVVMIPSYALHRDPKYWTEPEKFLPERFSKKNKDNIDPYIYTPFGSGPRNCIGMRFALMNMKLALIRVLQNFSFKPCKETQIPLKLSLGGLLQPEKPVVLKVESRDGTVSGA

With `C[C@H](Cn1cnc2c(N)ncnc21)OCP(=O)(O)OCCCCCCCCCCCCCCCCCC[Si](C)(C)C.N` [NP-PD-051, Ammonium [(1R)-2-(6-aminopurin-9-yl)-1-methyl-ethoxy]methyl-(18-trimethylsilyloctadecoxy)phosphinate], the IC50 (usually the concentration that gives 50% inhibition) amounted to 16.4 µM in series [1] (setting [4]) and 51.4 µM in series [2] (setting [5]). In series [3], the half-life at 3 µM was more than 120 min.

For the molecule `CCCCCCCCCCCCCCCCCOCCOP(=O)(O)COC(C)Cn1cnc2c(N)ncnc21.N` (racemic) [NP-PD-157, Ammonium 2-heptadecoxyethoxy-[[rac-(1R)-2-(6-aminopurin-9-yl)-1-methyl-ethoxy]methyl]phosphinate], the half-life at 3 µM in series [3] was 35 min.

With `C#CCCCCCCCCCCCCCCSCCCOP(=O)(O)CO[C@H](C)Cn1cnc2c(N)ncnc21` [MD-1-182, Ammonium 3-(hexadec-15-yn-1-ylthio)propyl (R)-(((1-(6-amino-9H-purin-9-yl)propan-2-yl)oxy)methyl) phosphonate], the half-life at 3 µM in series [3] amounted to 96 min.

With `CCCCCCCCCCCCCCCCSCCCOP(=O)(O)CO[C@H](C)Cn1cnc2c(N)ncnc21` [MD-1-123, Ammonium 3-(hexadecylthio)propyl (R)-(((1-(6-amino-9H-purin-9-yl)propan-2-yl)oxy)methyl) phosphonate], the results for the IC50 in series [1] (setting [4]) and in series [2] (setting [5]) were 110 µM and 58 µM, respectively. Besides, in series [3], the half-life at 3 µM was 42 min.

As to `CCCCSCCCCCCCCCCCCCCCOP(=O)(O)CO[C@H](C)Cn1cnc2c(N)ncnc21` [MD-1-221, Ammonium 15-(butylthio)pentadecyl (R)-(((1-(6-amino-9H-purin-9-yl)propan-2-yl)oxy)methyl) phosphonate], the IC50 in series [1] (setting [4]) and in series [2] (setting [5]) was more than 20 µM in each case.

In the case of `C[C@H](Cn1cnc2c(N)ncnc21)OCP(=O)(O)OCCCSCCCCCCCCCCCCC#C[Si](C)(C)C.N` [MD-1-187, Ammonium 3-((14-(trimethylsilyl)tetradec-13-yn-1-yl)thio)propyl (R)-(((1-(6-amino-9H-purin-9-yl)propan-2-yl)oxy)methyl)phosphonate], the IC50 in series [1] (setting [4]) and in series [2] (setting [5]) was more than 20 µM in each case. The half-life at 3 µM in series [3] is more than 120 min.

On to `CCCCCCCCCCCCCCCOCCCCOP(=O)(O)COC(C)Cn1cnc2c(N)ncnc21.N` (racemic) [NP-PD-150, Ammonium 4-pentadecoxybutoxy-[[rac-(1R)-2-(6-aminopurin-9-yl)-1-methyl-ethoxy]methyl]phosphinate], for which the half-life at 3 µM in series [3] amounted to 48 min.

With `CCCCCCCCCCCCCSCCCCCCOP(=O)(O)CO[C@H](C)Cn1cnc2c(N)ncnc21` [MD-1-219, Ammonium 6-(tridecylthio)hexyl (R)-(((1-(6-amino-9H-purin-9-yl)propan-2-yl)oxy)methyl) phosphonate], the half-life at 3 µM in series [3] was 66 min.

Take `CCCCCCCCCCCCCCOCCCCCOP(=O)(O)COC(C)Cn1cnc2c(N)ncnc21.N` (racemic) [NP-PD-154, Ammonium [rac-(1R)-2-(6-aminopurin-9-yl)-1-methyl-ethoxy]methyl-(5-tetradecoxypentoxy)phosphinate]: the half-life at 3 µM in series [3] came to 29 min.

As for `C[C@H](Cn1cnc2c(N)ncnc21)OCP(=O)(O)OCCCSCCCCCCCCCCCSc1ccccc1.N` [MD-1-119, Ammonium 3-((11-(phenylthio)undecyl)thio)propyl (R)-(((1-(6-amino-9H-purin-9-yl)propan-2-yl)oxy)methyl)phosphonate], the figures for the IC50 in series [1] (setting [4]) and in series [2] (setting [5]) were 36.3 µM and 11 µM, respectively. For the same molecule, in series [3], the half-life at 3 µM worked out at 12 min.

`CCCCCCCCCCCCCCCCCCCCSCCCOP(=O)(O)CO[C@H](C)Cn1cnc2c(N)ncnc21.N` [MD-1-186, Ammonium 3-(icosylthio)propyl (R)-(((1-(6-amino-9H-purin-9-yl)propan-2-yl)oxy)methyl)phosphonate]: in series [3], the half-life at 3 µM was more than 120 min.

For `N.[2H]C([2H])([2H])C([2H])([2H])CCCCCCCCCCCCCOP(=O)(O)CO[C@H](C)Cn1cnc2c(N)ncnc21` [EJM-8-030, Ammonium pentadecyl-14,14,15,15,15-d5 (R)-(((1-(6-amino-9H-purin-9-yl)propan-2-yl)oxy)methyl)phosphonate], the 50% inhibitory concentration (IC50) in series [1] worked out at 38.3 µM; in series [2], 52.2 µM. The half-life at 3 µM in series [3] was found to be 20 min.

As for `CCCCCCCCCCSCCCCCCCCCOP(=O)(O)CO[C@H](C)Cn1cnc2c(N)ncnc21.N` [MD-1-122, Ammonium 9-(decylthio)nonyl (R)-(((1-(6-amino-9H-purin-9-yl)propan-2-yl)oxy)methyl)phosphonate], in series [3], the half-life at 3 µM is 13 min.

As for `C[C@H](Cn1cnc2c(N)ncnc21)OCP(=O)(O)OCCCSCCCCCCCCCCC#Cc1ccccc1.N` [MD-1-183, Ammonium 3-((12-phenyldodec-11-yn-1-yl)thio)propyl (R)-(((1-(6-amino-9H-purin-9-yl)propan-2-yl)oxy)methyl)phosphonate], the IC50 in series [1] (setting [4]) is more than 20 µM. Moreover, the half-life at 3 µM in series [3] is 72 min.

As for `CCCCCCCCCCCCCCCCCCSCCCOP(=O)(O)CO[C@H](C)Cn1cnc2c(N)ncnc21` [MD-1-185, Ammonium 3-(octadecylthio)propyl (R)-(((1-(6-amino-9H-purin-9-yl)propan-2-yl)oxy)methyl) phosphonate], the half-life at 3 µM in series [3] is more than 120 min.

Turning to `C[C@H](Cn1cnc2c(N)ncnc21)OCP(=O)(O)OCCCSCCCCCCCCCCCCc1ccccc1.N` [MD-1-184, Ammonium 3-((12-phenyldodecyl)thio)propyl (R)-(((1-(6-amino-9H-purin-9-yl)propan-2-yl)oxy)methyl)phosphonate], the IC50 in series [1] (setting [4]) is more than 20 µM. The half-life at 3 µM in series [3] is 69 min.
